The values below come from patent US6136327A, “Stereospecific delivery of a drug using electrotransport” (priority 1997, dated 2000).

For data set [1] the following is noted: in vivo. Here is the method:
The transport of the R- and S-isomers of ketorolac was evaluated using passive transdermal delivery and electrotransport, in a study conducted in healthy volunteers. Intravenous bolus administration of 24 mg racemic ketorolac served as the reference treatment. The relative amounts of R- and S-ketorolac absorbed following passive transdermal and electrotransport administration were determined relative to intravenous R- and S-ketorolac clearance (assuming that the racemic ketorolac contained equal amounts of the R- and S-isomers).

For data set [2] the following is noted: in vivo; cited from earlier work.
Data set [3] can be described thus: clinical. Conditions: in vivo; for AUC(0-inf): AUCinf. Here is the method: A study was performed in order to compare the pharmacokinetic parameters of R- and S-ketorolac following intravenous, passive transdermal and electrotransport administration of a racemic mixture of ketorolac.
Twelve healthy male volunteers were enrolled in a pilot feasibility study. Subjects were required to undergo a pre-study screening to evaluate whether they met study inclusion or exclusion criteria. Screening procedures included a medical history, physical exam, electrocardiogram and clinical laboratory tests.
The study was an open-label, randomized, three-treatment crossover pharmacokinetics study designed to compare plasma ketorolac concentrations during 24-hour treatment regimens with an electrotransport system ("ETS"), a (passive) therapeutic transdermal system ("TTS") and intravenous ketorolac bolus injection.
The ketorolac treatments are listed below; there was a washout period of at least 6 days between treatments.
During the ETS (ketorolac) treatment, each subject was expected to receive an estimated 26 mg of ketorolac free acid over a 24-hour period, delivered by electrotransport from a total cathode area of 18 cm^2, based on an estimated in vitro flux rate of 60 μg/cm^2 /h.
Three electrotransport systems, with a total cathode gel area of 18 cm^2, were applied to the upper arms of each subject in this study. Each of the three controllers was set to provide a total direct current of 0.6 mA, which maintained a current density of 100 μA/cm^2.
During TTS treatment, each subject was expected to receive an estimated 50 mg of ketorolac free acid over a 24-hour period, delivered passively through the skin from a total application area of 75 cm^2 based on an estimated in vitro flux rate of 25 to 30 μg/cm^2 /h.
The TTS systems were produced with a backing and protective liner in a 25 cm^2 size. The system formulation contained drug (free acid), ethylene vinyl acetate (40% vinyl acetate), glycerol monolaurate, and Ceraphyl® 31. Three TTS monoliths, with a total surface area of 75 cm^2, were used to deliver the drug. The combined systems contained 135 mg of ketorolac free acid. Because the systems were not self-adhesive, an adhesive overlay was required to ensure good skin contact.
During the intravenous bolus treatment, each subject received a total of 24 mg of ketorolac free acid (36 mg of ketorolac tromethamine salt). Drug was delivered by IV bolus injections of 12 mg of ketorolac free acid (18 mg of ketorolac tromethamine salt) which were administered at Hour 0 and at Hour 12. A 1 mL aliquot of each ketorolac solution was retained directly after syringe preparation and prior to injection.
Initially either the ETS or the TTS was applied, or the first intravenous injection was administered. ETS and TTS treatments continued for 24 hours, and the bolus treatment was completed after the second dose at 12 hours. Blood and urine samples were collected at intervals during a 48-hour period after initiation of each ketorolac treatment regimen.
Blood samples, 7 mL each, were collected from each subject at intervals during the 48 hour period after initiation of treatment.
Plasma levels of ketorolac were determined by HPLC assay, performed at the Clinical Pharmacology Division of the School of Medicine at Indiana University, Wishard Memorial Hospital, Indianapolis, Ind.
Actual blood sample collection times were used for all calculations and data were summarized by nominal sampling times. Plasma ketorolac concentrations below the assay quantification limit of 20 ng/mL were assigned a value of zero.

For data set [4] the following is noted: transdermal; cited from earlier work.

In general, AUC(0-inf) refers to total exposure, with the tail of the curve extrapolated. A high value points to high exposure. Take `O=C(c1ccccc1)c1ccc2n1CC[C@@H]2C(=O)O` [S-ketorolac]: the “S/R ratio of amount absorbed, mean” value in data set [1] worked out at 1.15. In addition, the “S/R ratio of amount absorbed, median” value in data set [1] worked out at 1.18. Further, the “S/R ratio of amount absorbed, range” value in data set [1] is 0.8-1.43. In addition, the “clearance vs other enantiomer” value in data set [2] is “more rapid clearance than the other enantiomer”. The “Plasma Ketorolac Concentrations” value in data set [3] (human, 60 min) is listed as 0.0 ng/mL; in data set [3] (human, 90 min), 0.0 ng/mL; in data set [3] (human, 360 min) it was 0.0 ng/mL; in data set [3] (human, 480 min), 0.0 ng/mL; in data set [3] (human, 720 min), 0.0 ng/mL; in data set [3] (human, 960 min) it was 0.0 ng/mL. Moreover, the “Plasma Ketorolac Concentrations” value in data set [3] (human, 1200 min) is given as 0.0 ng/mL; in data set [3] (human, 1440 min), 0.0 ng/mL; in data set [3] (human, 1470 min), 0.0 ng/mL; in data set [3] (human, 1500 min), 0.0 ng/mL; in data set [3] (human, 1560 min), 0.0 ng/mL; in data set [3] (human, 1680 min) it was 0.0 ng/mL. The “Plasma Ketorolac Concentrations” value in data set [3] (human, iv, 240 min) was found to be 0.0 ng/mL; in data set [3] (human, iv, 360 min), 0.0 ng/mL; in data set [3] (human, iv, 480 min) it was 0.0 ng/mL; in data set [3] (human, iv, 720 min), 0.0 ng/mL; in data set [3] (human, iv, 14 h), 113.0 ng/mL; in data set [3] (human, iv, 1080 min), 0.0 ng/mL. Also, the “Plasma Ketorolac Concentrations” value in data set [3] (human, iv, 1200 min) was 0.0 ng/mL; in data set [3] (human, iv, 1440 min), 0.0 ng/mL; in data set [3] (human, topical or ocular, 16 h) it was 58.0 ng/mL; in data set [3] (human, topical or ocular, 28 h) it was 21.0 ng/mL. This molecule registered an AUC inf in data set [3] (human, iv) of 1566 ng·h/mL. The “Apparent elimination rate constant (k)” value in data set [3] (human, iv) amounted to 0.41 h⁻¹. In addition, the C max in data set [3] (human, iv) came to 404 ng/mL. Moreover, the “K2 (elimination rate constant)” value in data set [3] (human, iv) was determined as 0.35 h⁻¹. The molecule further gave a T max in data set [3] (human, iv) of 0.5 h. The molecule also returned a Volume in data set [3] (human, iv) of 10.33 L. For the same molecule, in data set [3] (human, iv), the AUC(0-inf) amounted to 1560 ng·h/mL. The “Amount Delivered (AD), ETS/IV (amount absorbed)” value in data set [3] (iv) is given as 11.65 mg. The “Amount Delivered (AD), TTS/IV (amount absorbed)” value in data set [3] (iv) was 4.76 mg. The “K1 (distribution rate constant)” value in data set [3] (iv) turned out to be 2.10 h⁻¹. The “clearance, R- vs S-ketorolac” value in data set [3] (iv) is reported as “differed”.

The term half-life denotes the time in which the quantity being followed falls by half. On to `O=C(c1ccccc1)c1ccc2n1CC[C@H]2C(=O)O` [R-ketorolac], for which the “Plasma Ketorolac Concentrations” value in data set [3] (human, 60 min) was determined as 0.0 ng/mL; in data set [3] (human, 90 min), 0.0 ng/mL; in data set [3] (human, 240 min), 0.0 ng/mL; in data set [3] (human, 360 min), 0.0 ng/mL; in data set [3] (human, 480 min) it was 0.0 ng/mL; in data set [3] (human, 720 min), 0.0 ng/mL. Besides, the “Plasma Ketorolac Concentrations” value in data set [3] (human, 960 min) is given as 0.0 ng/mL; in data set [3] (human, 1680 min), 0.0 ng/mL; in data set [3] (human, 1920 min), 0.0 ng/mL; in data set [3] (human, 2880 min) it was 0.0 ng/mL; in data set [3] (human, iv, 720 min) it was 0.0 ng/mL; in data set [3] (human, iv, 14 h), 386.0 ng/mL. Besides, the “Plasma Ketorolac Concentrations” value in data set [3] (human, topical or ocular, 1.5 h) was 37.0 ng/mL; in data set [3] (human, topical or ocular, 12 h), 67.0 ng/mL; in data set [3] (human, topical or ocular, 20 h), 29.0 ng/mL; in data set [3] (human, topical or ocular, 24.5 h) it was 211.0 ng/mL. The AUC(0-inf) in data set [3] (human) amounted to 5640 ng·h/mL; in data set [3] (human, iv) it was 6250 ng·h/mL. In data set [3] (human, iv), this molecule registered an AUC inf of 6171 ng·h/mL. Moreover, the “Apparent elimination rate constant (k)” value in data set [3] (human, iv) worked out at 0.125 h⁻¹. Also, the “Apparent half-life (t1/2)” value in data set [3] (human, iv) is listed as 4.3 h. Moreover, the C max in data set [3] (human, iv) came out at 872 ng/mL. Moreover, in data set [3] (human, iv), the “K2 (elimination rate constant)” value worked out at 0.15 h⁻¹. The molecule also came in with a Volume in data set [3] (human, iv) of 5.4 L. The k el in data set [3] (human, iv, Apparent elimination rate constant (k)) was 3.89e-05 s⁻¹. In addition, in data set [3] (human, iv, Apparent half-life (t1/2)), the half-life is 5 h. Moreover, in data set [3], the “plasma concentrations during TTS compared with ETS” value is reported as “lower than those observed during ETS administration”. In addition, in data set [3] (iv), the “Amount Delivered (AD), ETS/IV (amount absorbed)” value amounted to 7.9 mg. For the same molecule, the “Amount Delivered (AD), TTS/IV (amount absorbed)” value in data set [3] (iv) is given as 4.96 mg. The “K1 (distribution rate constant)” value in data set [3] (iv) was 1.54 h⁻¹. This molecule yielded a T max in data set [3] (iv) of 0.5 h. Besides, the “clearance, R- vs S-ketorolac” value in data set [3] (iv) was “differed”.

With phenylpropanolamine, the “flux rates of individual purified isomers” value in data set [4] is on record as “nearly identical flux rates”.
